Target: Diacylglycerol acyltransferase/mycolyltransferase Ag85C (Mycobacterium tuberculosis, UniProt P9WQN9)
Assay: In vitro concentration required to inhibit antigen 85C mycolyltransferase activity in Mycobacterium tuberculosis

Diacylglycerol acyltransferase/mycolyltransferase Ag85C, sequence (P9WQN9 whole entry): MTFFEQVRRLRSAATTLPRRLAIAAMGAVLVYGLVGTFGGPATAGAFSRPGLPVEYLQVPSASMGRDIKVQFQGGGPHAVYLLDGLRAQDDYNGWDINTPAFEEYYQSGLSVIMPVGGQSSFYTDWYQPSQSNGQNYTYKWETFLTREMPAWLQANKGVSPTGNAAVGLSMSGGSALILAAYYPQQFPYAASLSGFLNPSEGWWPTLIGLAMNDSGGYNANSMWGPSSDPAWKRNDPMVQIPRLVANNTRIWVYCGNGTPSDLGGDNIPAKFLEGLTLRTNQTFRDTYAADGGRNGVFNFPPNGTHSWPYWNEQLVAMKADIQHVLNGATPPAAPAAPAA

How did the IC50 turn out when `CCCCCCCP(=O)(OCC)OCN1C(=O)c2ccccc2C1=O` (configuration not stated) was run?
The IC50 was 1.31 µM.

With `CCCCCCCCCCCCCCP(=O)(OCC)OCN1C(=O)c2ccccc2C1=O` (configuration not stated) as the compound, how does the IC50 read?
Its IC50 is 41 µM.

`CCCCP(=O)(OCC)OCc1cccc(Oc2ccccc2)c1` (configuration not stated) was tested. Which IC50 did it give?
Its IC50 is 2.01 µM.

Which IC50 does the source give for `CCCCCCP(=O)(OCC)OCc1cccc(Oc2ccccc2)c1` (configuration not stated) here?
The IC50 was 42.6 µM.

Which IC50 does the source give for `CCCCCCCCCP(=O)(OCC)OCCN1C(=O)c2ccccc2C1=O` (configuration not stated) here?
Its IC50 is 25.7 µM.

For `CCCCCCCCCCCCCCP(=O)(OCC)OCc1cccc(Oc2ccccc2)c1` (configuration not stated), which IC50 is on record?
The IC50 was 862 µM.

Which IC50 does the source give for `CCCCCCCP(=O)(OCC)OCc1cccc(Oc2ccccc2)c1` (configuration not stated) here?
The IC50 was 21 µM.

How did the IC50 turn out when `CCCCCCCCCP(=O)(OCC)OCc1cccc(Oc2ccccc2)c1` (configuration not stated) was run?
The IC50 was 14.8 µM.

How did the IC50 turn out when `CCCCCCCP(=O)(O)OCCN1C(=O)c2ccccc2C1=O` was run?
The IC50 was 1.47 µM.

Which IC50 does the source give for `CCCCCCCCCP(=O)(OCC)OCN1C(=O)c2ccccc2C1=O` (configuration not stated) here?
Its IC50 is 87.1 µM.

For `CCCCP(=O)(OCC)OCN1C(=O)c2ccccc2C1=O` (configuration not stated), which IC50 is on record?
Its IC50 is 10 µM.

With `CCCCP(=O)(OCC)OCCN1C(=O)c2ccccc2C1=O` (configuration not stated) as the compound, how does the IC50 read?
The IC50 was 50.7 µM.

With `CCCCCCP(=O)(O)OCCN1C(=O)c2ccccc2C1=O` as the compound, how does the IC50 read?
Its IC50 is 4.39 µM.

Which IC50 does the source give for `CCCCP(=O)(O)OCC` [ETHYL HYDROGEN BUTYLPHOSPHONATE] here?
The IC50 was 431 µM.

For `CCCCCCCP(=O)(O)OCC` [ETHYL HYDROGEN HEPTYLPHOSPHONATE], which IC50 is on record?
The IC50 was 1.06 µM.

For `CCCCCCP(=O)(O)OCC` [ETHYL HYDROGEN HEXYLPHOSPHONATE], which IC50 is on record?
The IC50 was 3.56 µM.

For `CCCCCCCCCP(=O)(O)OCC` [ETHYL HYDROGEN NONYLPHOSPHONATE], which IC50 is on record?
The IC50 was 471 µM.

Source: ChEMBL document CHEMBL1147478, “Phosphonate inhibitors of antigen 85C, a crucial enzyme involved in the biosynthesis of the Mycobacterium tuberculosis cell wall” (Bioorg Med Chem Lett, 2004)
